# Data: US9359383B2, “β-ketoimine ligand, method of preparing the same, metal complex comprising the same and method of forming thin film using the same” (SAMSUNG ELECTRONICS CO., LTD., priority 2011, dated 2016)
# How the values were obtained:
# [1] = Evaluation of solubility in organic solvent (Test Example 2); type: physicochemical; conditions: 0.1-0.7 mol added to 1000 ml solvent, sealed, stood 24 hours, visual observation
# Experimental: For the strontium complex compounds of Examples 1 to 3 and Comparative Examples 2 to 8, the solubilities of the complex compounds in ethyl cyclohexane, diethyl glycol dimethyl ether and toluene were evaluated. The evaluation was performed by adding 0.1-0.7 mol of each of the strontium complex compounds to 1000 ml of each of the organic solvents, sealing the mixtures, allowing the mixtures to stand for 24 hours, and visually observing whether a solid occurred in the mixtures. […] In Table 3, the case in which the complex compound was dissolved at a concentration of less than 0.1 mol was indicated as “x”.
# [2] = Purification by distillation under reduced pressure (thermal stability); type: physicochemical; conditions: distillation at 30-50 Pa and 200-220° C.
# Experimental: Strontium complex compounds of Comparative Examples 1 to 8 were prepared using the β-ketoimine ligands, obtained in Synthesis Examples 4 to 11, in the same manner as Example 1. Purification of the strontium complex compounds of Comparative Examples 3, 4, 5, 6 and 8, which could be distilled, was carried out at a pressure of 30-50 Pa and a temperature of 200˜220° C. […] The strontium complex compounds of Comparative Examples 1 to 8 were analyzed in the same manner as Examples 1 to 3, thereby determining the chemical structures thereof.
# [3] = Thermal stability by TGA (Test Example 3); type: physicochemical; conditions: dry argon 100 ml/min, heating rate 10° C./min, sample 7-12 mg
# Experimental: (§1) The strontium complex compounds of Examples 1 to 3 and Comparative Examples 5 to 8 were measured for thermal stability by TGA and DSC. The TGA measurement was carried out under the following conditions: dry argon flow rate: 100 ml/min; heating rate: 10° C./min; and a sample amount of 7-12 mg. The DSC measurement was carried out by injecting a sample into a closed metal container in a glove box in a dry argon atmosphere and heating the sample container at a rate of 10° C./min, in which the amount of the sample was 1-4 mg. In the TGA measurement, sampling and measurement were carried out in the glove box in the dry argon atmosphere.
# [4] = Thermal stability by DSC (Test Example 3); type: physicochemical; conditions: closed metal container, dry argon, heating rate 10° C./min, sample 1-4 mg
# Experimental: as §1
smiles,measurement,setting,value
CC1=[N+](CCN(C)C)[Sr-2]2([O]C(C(C)(C)C)=C1)[O]C(C(C)(C)C)=CC(C)=[N+]2CCN(C)C [Comparative Example 2],"concentration of the strontium complex compound in the transparent liquid in which no solid was present, Diethylene glycol dimethyl ether",[1],0.3 mol
same,"concentration of the strontium complex compound in the transparent liquid in which no solid was present, Ethyl cyclohexane",[1],X (the case in which the complex compound was dissolved at a concentration of less than 0.1 mol was indicated as “x”)
same,"concentration of the strontium complex compound in the transparent liquid in which no solid was present, Toluene",[1],0.3 mol
same,thermal stability (could not be purified by distillation),[2],low thermal stability
CC(C)C1=[N+](C(C)CN(C)C)[Sr-2]2([O]C(C(C)(C)C)=C1)[O]C(C(C)(C)C)=CC(C(C)C)=[N+]2C(C)CN(C)C (stereo not drawn) [Comparative Example 4],"concentration of the strontium complex compound in the transparent liquid in which no solid was present, Diethylene glycol dimethyl ether",[1],0.4 mol
same,"concentration of the strontium complex compound in the transparent liquid in which no solid was present, Ethyl cyclohexane",[1],0.3 mol
same,"concentration of the strontium complex compound in the transparent liquid in which no solid was present, Toluene",[1],0.7 mol
CCOCC(C)(C)C(=O)C=C(C(C)C)[N]([Sr][N](C(=CC(=O)C(C)(C)COCC)C(C)C)C(C)CN(C)C)C(C)CN(C)C (stereo not drawn) [Example 2],"concentration of the strontium complex compound in the transparent liquid in which no solid was present, Diethylene glycol dimethyl ether",[1],0.7 mol
same,"concentration of the strontium complex compound in the transparent liquid in which no solid was present, Ethyl cyclohexane",[1],0.6 mol
same,"concentration of the strontium complex compound in the transparent liquid in which no solid was present, Toluene",[1],0.7 mol
same,Remaining amount (wt % at 400 ° C.),[3],1.40 wt %
same,Decomposition peak top temperature (° C.),[4],360.7 °C
COCCCC1=[N+](CCCN(C)C)[Sr-2]2([O]C(C(C)(C)C)=C1)[O]C(C(C)(C)C)=CC(CCCOC)=[N+]2CCCN(C)C [Comparative Example 5],"concentration of the strontium complex compound in the transparent liquid in which no solid was present, Diethylene glycol dimethyl ether",[1],0.4 mol
same,"concentration of the strontium complex compound in the transparent liquid in which no solid was present, Ethyl cyclohexane",[1],X (the case in which the complex compound was dissolved at a concentration of less than 0.1 mol was indicated as “x”)
same,"concentration of the strontium complex compound in the transparent liquid in which no solid was present, Toluene",[1],0.1 mol
same,Remaining amount (wt % at 400 ° C.),[3],26.2 wt %
same,Decomposition peak top temperature (° C.),[4],336.8 °C
COCC(C)(C)C1=[O+][Sr-4]234([O+]=C(C(C)(C)COC)C=C(C(C)C)[N]2C(C)C[N+]3(C)C)[N](C(C(C)C)=C1)C(C)C[N+]4(C)C (stereo not drawn) [Example 1],"concentration of the strontium complex compound in the transparent liquid in which no solid was present, Diethylene glycol dimethyl ether",[1],0.7 mol
same,"concentration of the strontium complex compound in the transparent liquid in which no solid was present, Ethyl cyclohexane",[1],0.7 mol
same,"concentration of the strontium complex compound in the transparent liquid in which no solid was present, Toluene",[1],0.7 mol
same,Remaining amount (wt % at 400 ° C.),[3],0.61 wt %
same,Decomposition peak top temperature (° C.),[4],382.4 °C
same,melting point,,140 to 141 °C
COCC[N+]1=C(C)C=C(C(C)(C)C)[O][Sr-2]12[O]C(C(C)(C)C)=CC(C)=[N+]2CCOC [Comparative Example 1],thermal stability (could not be purified by distillation),[2],low thermal stability
CCC(C)C(=CC(=O)C(C)(C)COC)[N]([Sr][N](C(=CC(=O)C(C)(C)COC)C(C)CC)C(C)CN(C)C)C(C)CN(C)C (stereo not drawn) [Example 3],"concentration of the strontium complex compound in the transparent liquid in which no solid was present, Diethylene glycol dimethyl ether",[1],0.7 mol
same,"concentration of the strontium complex compound in the transparent liquid in which no solid was present, Ethyl cyclohexane",[1],0.7 mol
same,"concentration of the strontium complex compound in the transparent liquid in which no solid was present, Toluene",[1],0.7 mol
same,Remaining amount (wt % at 400 ° C.),[3],0.87 wt %
same,Decomposition peak top temperature (° C.),[4],393.2 °C
COCC(C)[N+]1=C(C(C)C)C=C(C(C)(C)COC)[O][Sr-2]12[O]C(C(C)(C)COC)=CC(C(C)C)=[N+]2C(C)COC (stereo not drawn) [Comparative Example 6],"concentration of the strontium complex compound in the transparent liquid in which no solid was present, Diethylene glycol dimethyl ether",[1],0.4 mol
same,"concentration of the strontium complex compound in the transparent liquid in which no solid was present, Ethyl cyclohexane",[1],0.5 mol
same,"concentration of the strontium complex compound in the transparent liquid in which no solid was present, Toluene",[1],0.4 mol
same,Remaining amount (wt % at 400 ° C.),[3],3.7 wt %
same,Decomposition peak top temperature (° C.),[4],363.0 °C
COCC(C)(C)C1=CC(C(C)C)=[N+](CCN(C)C)[Sr-2]2([O]1)[O]C(C(C)(C)COC)=CC(C(C)C)=[N+]2CCN(C)C [Comparative Example 7],"concentration of the strontium complex compound in the transparent liquid in which no solid was present, Diethylene glycol dimethyl ether",[1],0.2 mol
same,"concentration of the strontium complex compound in the transparent liquid in which no solid was present, Ethyl cyclohexane",[1],0.3 mol
same,"concentration of the strontium complex compound in the transparent liquid in which no solid was present, Toluene",[1],0.3 mol
same,Remaining amount (wt % at 400 ° C.),[3],10.2 wt %
same,Decomposition peak top temperature (° C.),[4],337.5 °C
same,thermal stability (could not be purified by distillation),[2],low thermal stability
COCCC(C)(C)C1=CC(C(C)C)=[N+](C(C)CN(C)C)[Sr-2]2([O]1)[O]C(C(C)(C)CCOC)=CC(C(C)C)=[N+]2C(C)CN(C)C (stereo not drawn) [Comparative Example 8],"concentration of the strontium complex compound in the transparent liquid in which no solid was present, Diethylene glycol dimethyl ether",[1],X (the case in which the complex compound was dissolved at a concentration of less than 0.1 mol was indicated as “x”)
same,"concentration of the strontium complex compound in the transparent liquid in which no solid was present, Ethyl cyclohexane",[1],X (the case in which the complex compound was dissolved at a concentration of less than 0.1 mol was indicated as “x”)
same,"concentration of the strontium complex compound in the transparent liquid in which no solid was present, Toluene",[1],0.1 mol
same,Remaining amount (wt % at 400 ° C.),[3],3.97 wt %
same,Decomposition peak top temperature (° C.),[4],368.2 °C
